Assays:
[1] = biological target: T1, human Melanin concentrating hormone receptor 1 (hMCHr1) (Homo sapiens, UniProt Q99705); test: MCHr1 receptor radioligand binding (125I-MCH, membranes from CHO-K1 cells); conditions: 125I-MCH displacement, CHO-K1 membranes expressing hMCHr1, 30° C. 60 minutes; read-out: IC50 in human MCHr binding assay
T1 construct: purchased Euroscreen; host or cells: CHO-K1 cells (recombinant expression; membranes)
Method: Assays were performed in a 96-well plate format in a final reaction volume of 200 μl per well. […] Filters were washed with assay buffer.
Non-specific binding was subtracted from all values determined. […] Binding of compounds at various concentrations was plotted according to the equation

hERG = hERG (Homo sapiens, UniProt Q12809); test: hERG activity (planar-array-based voltage clamp, modified Kiss et al. method); format: cell-based
Method: hERG testing was performed using a modified version of the method described by Kiss L, Bennett P B, Uebele V N, Koblan K S, Kane S A, Neagle B, Schroeder K. “High throughput ion-channel pharmacology: planar-array-based voltage clamp.” Assay Drug Dev Technol. 1, 127-35. (2003).

T1 sequence (Q99705 whole entry): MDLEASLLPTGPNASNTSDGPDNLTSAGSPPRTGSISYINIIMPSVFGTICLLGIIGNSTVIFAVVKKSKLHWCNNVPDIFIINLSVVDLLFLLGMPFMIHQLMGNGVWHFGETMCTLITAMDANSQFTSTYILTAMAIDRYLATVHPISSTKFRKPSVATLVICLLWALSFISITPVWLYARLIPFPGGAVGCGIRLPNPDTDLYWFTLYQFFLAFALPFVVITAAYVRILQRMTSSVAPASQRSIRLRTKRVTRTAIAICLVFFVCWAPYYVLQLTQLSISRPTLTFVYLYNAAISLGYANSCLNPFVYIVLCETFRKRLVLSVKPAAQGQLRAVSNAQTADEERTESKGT
hERG, sequence (Q12809 whole entry): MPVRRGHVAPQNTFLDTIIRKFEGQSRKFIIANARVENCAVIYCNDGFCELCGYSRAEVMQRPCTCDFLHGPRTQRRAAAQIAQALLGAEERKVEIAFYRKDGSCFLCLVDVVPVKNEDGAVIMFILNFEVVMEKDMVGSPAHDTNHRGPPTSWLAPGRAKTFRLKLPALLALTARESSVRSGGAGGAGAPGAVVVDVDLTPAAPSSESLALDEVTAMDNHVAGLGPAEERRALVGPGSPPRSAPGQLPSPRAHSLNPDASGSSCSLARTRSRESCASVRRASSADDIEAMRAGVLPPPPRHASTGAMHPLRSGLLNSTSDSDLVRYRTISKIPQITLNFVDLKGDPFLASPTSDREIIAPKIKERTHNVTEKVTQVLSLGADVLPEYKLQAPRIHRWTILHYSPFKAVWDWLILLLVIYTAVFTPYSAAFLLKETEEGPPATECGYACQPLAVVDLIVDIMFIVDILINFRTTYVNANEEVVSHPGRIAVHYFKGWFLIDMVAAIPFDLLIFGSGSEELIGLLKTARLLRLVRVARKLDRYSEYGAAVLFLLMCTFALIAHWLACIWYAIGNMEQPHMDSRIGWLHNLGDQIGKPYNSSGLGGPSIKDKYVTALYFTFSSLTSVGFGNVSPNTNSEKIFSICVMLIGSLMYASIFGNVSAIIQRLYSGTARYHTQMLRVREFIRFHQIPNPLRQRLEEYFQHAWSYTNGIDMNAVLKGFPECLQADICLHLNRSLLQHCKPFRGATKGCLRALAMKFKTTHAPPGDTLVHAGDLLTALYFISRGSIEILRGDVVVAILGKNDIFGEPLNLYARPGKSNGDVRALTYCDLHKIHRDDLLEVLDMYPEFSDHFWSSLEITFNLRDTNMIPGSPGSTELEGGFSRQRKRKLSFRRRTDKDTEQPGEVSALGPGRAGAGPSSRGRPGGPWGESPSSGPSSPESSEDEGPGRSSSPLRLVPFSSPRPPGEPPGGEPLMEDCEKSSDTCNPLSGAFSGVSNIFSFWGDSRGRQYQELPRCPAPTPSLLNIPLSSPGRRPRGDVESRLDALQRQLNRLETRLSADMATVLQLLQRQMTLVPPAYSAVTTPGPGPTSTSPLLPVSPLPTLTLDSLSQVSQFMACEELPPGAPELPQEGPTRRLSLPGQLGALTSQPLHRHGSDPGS

For `COc1cc(-n2nnc3cc(-c4ccc(Cl)cc4)sc3c2=O)ccc1N1CC[C@@H](O)C1` [Example 1, 6-(4-Chlorophenyl)-3-{4-[(3R)-3-hydroxypyrrolidin-1-yl]-3-methoxyphenyl}thieno[3,2-d][1,2,3]triazin4(3D)-one], the IC50 [1] was 11 nM and the IC50 (hERG) was over 5000 nM.

From patent US20080221107A1, “Therapeutic Agents” (ASTRAZENECA AB, priority 2005, published 2008)
